Each structure is given as a SMILES string.

T1 sequence (P13612 34-1032): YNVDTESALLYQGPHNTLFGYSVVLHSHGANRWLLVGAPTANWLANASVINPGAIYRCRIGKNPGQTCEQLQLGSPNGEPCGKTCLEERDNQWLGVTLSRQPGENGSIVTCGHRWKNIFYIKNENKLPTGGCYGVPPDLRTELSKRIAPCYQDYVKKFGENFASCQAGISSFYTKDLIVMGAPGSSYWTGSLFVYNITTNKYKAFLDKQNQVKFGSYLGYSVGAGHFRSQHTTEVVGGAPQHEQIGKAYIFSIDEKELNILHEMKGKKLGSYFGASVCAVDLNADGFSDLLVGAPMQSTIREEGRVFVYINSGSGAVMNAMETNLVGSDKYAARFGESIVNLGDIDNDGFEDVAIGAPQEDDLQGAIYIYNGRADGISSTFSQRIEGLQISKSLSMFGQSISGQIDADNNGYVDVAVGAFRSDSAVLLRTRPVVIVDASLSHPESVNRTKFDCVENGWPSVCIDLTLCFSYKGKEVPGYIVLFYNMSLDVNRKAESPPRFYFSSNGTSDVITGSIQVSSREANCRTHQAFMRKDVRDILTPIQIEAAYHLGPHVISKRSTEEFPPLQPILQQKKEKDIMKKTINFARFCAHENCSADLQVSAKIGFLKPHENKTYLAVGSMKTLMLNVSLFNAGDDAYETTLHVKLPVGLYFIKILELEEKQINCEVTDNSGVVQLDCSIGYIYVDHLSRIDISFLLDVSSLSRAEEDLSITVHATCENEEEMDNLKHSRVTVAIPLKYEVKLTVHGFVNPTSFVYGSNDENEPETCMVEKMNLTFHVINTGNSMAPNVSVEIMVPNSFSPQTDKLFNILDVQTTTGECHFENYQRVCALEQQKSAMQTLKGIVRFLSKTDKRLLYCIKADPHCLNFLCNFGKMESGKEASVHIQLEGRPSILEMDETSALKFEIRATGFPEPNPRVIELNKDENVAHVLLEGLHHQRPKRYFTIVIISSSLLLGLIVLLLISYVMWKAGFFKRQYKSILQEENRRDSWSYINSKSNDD
T1 sequence (P05556 21-798): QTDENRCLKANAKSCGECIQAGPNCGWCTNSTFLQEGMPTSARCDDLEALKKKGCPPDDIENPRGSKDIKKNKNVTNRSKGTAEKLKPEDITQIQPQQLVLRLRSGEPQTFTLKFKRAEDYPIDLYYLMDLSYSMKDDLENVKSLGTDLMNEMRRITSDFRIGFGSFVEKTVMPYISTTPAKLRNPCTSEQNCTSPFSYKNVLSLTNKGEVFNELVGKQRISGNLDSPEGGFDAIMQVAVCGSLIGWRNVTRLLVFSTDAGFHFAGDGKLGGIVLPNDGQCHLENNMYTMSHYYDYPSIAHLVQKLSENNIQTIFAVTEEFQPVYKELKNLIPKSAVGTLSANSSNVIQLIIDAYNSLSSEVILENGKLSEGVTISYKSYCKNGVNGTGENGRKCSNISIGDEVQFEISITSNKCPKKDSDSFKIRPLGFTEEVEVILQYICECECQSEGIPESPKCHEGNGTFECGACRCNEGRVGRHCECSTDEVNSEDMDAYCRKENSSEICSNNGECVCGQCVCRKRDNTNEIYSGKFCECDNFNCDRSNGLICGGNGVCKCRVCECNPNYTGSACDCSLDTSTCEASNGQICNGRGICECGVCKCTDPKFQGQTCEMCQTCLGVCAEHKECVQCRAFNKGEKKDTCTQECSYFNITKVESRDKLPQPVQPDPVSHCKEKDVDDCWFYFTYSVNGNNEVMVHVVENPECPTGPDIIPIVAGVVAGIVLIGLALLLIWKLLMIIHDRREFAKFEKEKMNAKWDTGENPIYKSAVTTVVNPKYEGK

The experiment has as its target T1, integrins haα4 and β1 (VLA-4) expressed on CHO cells (Homo sapiens, UniProt P05556+P13612).
T1 construct: expressed in transfected cells; host or cells: CHO cells
As to the kind of experiment: In vitro Evaluation Test (1): binding of Eu3+-hVCAM-1 D1D7-IgG to CHO cells expressing integrins α4 and β1. The conditions noted are these: inhibition of Eu3+-hVCAM-1 D1D7-IgG binding to CHO cells expressing α4β1; Ki calculated from IC50. The protocol:
CHO cells forcedly expressed by the transduction of integrins haα4 and β1 were seeded in a Coster 3599 plate (3×10^4 cells/100 μl/well) and they were cultured for 2 days. After the medium was washed with buffer A* twice, 50 μl/well of Eu^3+-hVCAM-1 D1D7-IgG diluted to […] with an assay buffer ** was added. To the resulting well was added 50 μl/well of a test compound diluted with 2% DMS0-assay buffer (in the presence or absence of 6% human serum albumin) (to a well subjected to Scatchard analysis was added a solution diluted in another manner). After stirring for 5 minutes on a plate mixer, the plate was allowed to stand at room temperature for 1 hour. Then, the plate was washed four times with the buffer A and added with 100 μl/well of an enhancement reagent (DELFIA). The plate was shaken for 5 minutes on a plate mixer, followed by measurement of fluorescence intensity by a time-resolved fluorometer (DELFIA Wallac). From the binding ratio available by the following calculation formula: ((FT−FNS)−(FI−FNS))/(FT−FNS)×100, the IC50 (concentration inhibiting 50% of binding of CHO cells with hVCAM-1 D1D7-IgG) of the test compound was determined. In the above formula, FT means the fluorescence intensity of the well free of the test compound, FNS means the fluorescence intensity of the well free of the test compound and anti-hα4 antibody (SG/73), and FI means the fluorescence intensity of the well containing the test compound. The Kd indicating the binding strength and Bmax (maximum binding) were estimated within a range of 0.06 to 20 nM in accordance with the Scatchard analysis method.
The value Ki was calculated based on:
[formula] ((L) means a ligand concentration). (* buffer A: 25 mM HEPES (pH 7.5), 150 mM NaCl, 1 mM Ca^2+, 1 MM Mg^2+, 4 mM Mn^2+; ** assay buffer: 25 mM HEPES (pH 7.5), 150 mM NaCl, 1 mM Ca^2+, 1 mM Mg^2+, 4 mM Mn^2+, 0.1% BSA, 20 μM DTPA, with/without 6% ALBUMIN, HUMAN SERUM (C/N A-1653, SIGMA)) In vitro Evaluation Test (2)
A word on the Ki: it is the equilibrium dissociation constant of an inhibitor or competing ligand from its target. Consider `Cc1cccc2oc(Nc3ccc(CC(=O)N4C[C@@H](F)C[C@H]4CO[C@H]4CC[C@H](C(=O)O)CC4)cc3Cl)nc12` [Example 52, trans-4-(1-(3-Chloro-4-(2-(4-methylbenzoxazolyl))aminophenylacetyl)-(4S)-fluoro-(2S)-pyrrolidinylmethoxy)cyclohexanecarboxylic acid], for which the Ki was 10 nM.

In the case of `O=C(Cc1ccc(Nc2nc3cccc(F)c3o2)c(Cl)c1)N1C[C@@H](F)C[C@H]1CO[C@H]1CC[C@H](C(=O)O)CC1` [Example 53, trans-4-(1-(3-Chloro-4-(2-(7-fluorobenzoxazolyl))aminophenylacetyl)-(4S)-fluoro-(2S)-pyrrolidinylmethoxy)cyclohexanecarboxylic acid], the inhibition constant Ki is 32 nM.

As to `O=C(Cc1ccc(Nc2nc3cc(F)ccc3o2)c(Cl)c1)N1C[C@@H](F)C[C@H]1CO[C@H]1CC[C@H](C(=O)O)CC1` [Example 54, trans-4-(1-(3-Chloro-4-(2-(5-fluorobenzoxazolyl))aminophenylacetyl)-(4S)-fluoro-(2S)-pyrrolidinylmethoxy)cyclohexanecarboxylic acid], the Ki is 5.6 nM.

As to `O=C(Cc1ccc(Nc2nc3ccccc3s2)c(Cl)c1)N1C[C@@H](F)C[C@H]1CO[C@H]1CC[C@H](C(=O)O)CC1` [Example 56, trans-4-(1-(4-(2-Benzothiazolyl)amino-3-chlorophenylacetyl)-(4S)-fluoro-(2S)-pyrrolidinylmethoxy)cyclohexanecarboxylic acid], the Ki was 2.1 nM.

As for `O=C(Cc1ccc(Nc2nc3ccc(F)cc3s2)c(Cl)c1)N1C[C@@H](F)C[C@H]1CO[C@H]1CC[C@H](C(=O)O)CC1` [Example 57, trans-4-(1-(3-Chloro-4-(6-fluoro-2-benzothiazolyl)aminophenylacetyl)-(4S)-fluoro-(2S)-pyrrolidinylmethoxy)cyclohexanecarboxylic acid], the inhibition constant Ki is 7.3 nM.

Take `O=C(Cc1ccc(Nc2nc3ccc(Cl)cc3s2)c(Cl)c1)N1C[C@@H](F)C[C@H]1CO[C@H]1CC[C@H](C(=O)O)CC1` [Example 59, trans-4-(1-(4-(6-Chloro-2-benzothiazolyl)amino-3-chlorophenylacetyl)-(4S)-fluoro-(2S)-pyrrolidinylmethoxy)cyclohexanecarboxylic acid]: the Ki was 7.2 nM.

`O=C(Cc1ccc(Nc2nc3c(Cl)cccc3s2)c(Cl)c1)N1C[C@@H](F)C[C@H]1CO[C@H]1CC[C@H](C(=O)O)CC1` [Example 60, trans-4-(1-(4-(4-Chloro-2-benzothiazolyl)amino-3-chlorophenylacetyl)-(4S)-fluoro-(2S)-pyrrolidinylmethoxy)cyclohexanecarboxylic acid]: the inhibition constant Ki was 6.3 nM.

In the case of `O=C(Nc1ccc(CC(=O)N2C[C@@H](F)C[C@H]2CO[C@H]2CC[C@H](C(=O)O)CC2)cc1Br)c1c[nH]c2ccccc12` [Example 64, trans-4-(1-((3-Bromo-4-((3-indolylcarbonyl)amino)phenyl)acetyl)-(4S)-fluoro-(2S)-pyrrolidinylmethoxy)cyclohexanecarboxylic acid], the Ki was 0.31 nM.

For the molecule `Cn1cc(C(=O)Nc2ccc(CC(=O)N3C[C@@H](F)C[C@H]3CO[C@H]3CC[C@H](C(=O)O)CC3)nc2Cl)c2ccccc21` [Example 69, trans-4-(1-(2-Chloro-3-((1-methyl-3-indolylcarbonyl)amino)-6-pyridyl)acetyl)-(4S)-fluoro-(2S)-cyclohexanecarboxylic acid], the inhibition constant (Ki) was 34 nM.

`Cn1cc(C(=O)Nc2cc(F)c(CC(=O)N3C[C@@H](F)C[C@H]3CO[C@H]3CC[C@H](C(=O)O)CC3)cc2Cl)c2ccc(F)cc21` [Example 73, trans-4-(1-((5-Chloro-2-fluoro-4-((6-fluoro-1-methyl-3-indolylcarbonyl)amino)phenyl)acetyl)-(4S)-fluoro-(2S)-pyrrolidinylmethoxy)cyclohexanecarboxylic acid]: the Ki is 51 nM.

Turning to `Cn1cc(C(=O)Nc2cc(F)c(CC(=O)N3C[C@@H](F)C[C@H]3CO[C@H]3CC[C@H](C(=O)O)CC3)cc2Cl)c2c(F)cccc21` [Example 75, trans-4-(1-((5-Chloro-2-fluoro-4-((4-fluoro-1-methyl-3-indolylcarbonyl)amino)phenyl)acetyl)-(4S)-fluoro-(2S)-pyrrolidinylmethoxy)cyclohexanecarboxylic acid], the Ki was 21 nM.

For the molecule `COc1cc(CC(=O)N2C[C@@H](F)C[C@H]2CO[C@H]2CC[C@H](C(=O)O)CC2)c(F)cc1NC(=O)c1cn(C)c2ccccc12` [Example 76, trans-4-((4S)-Fluoro-1-(2-fluoro-5-methoxy-4-((1-methyl-1H-3-indolylcarbonyl)amino)phenylacetyl)-(2S)-pyrrolidinylmethoxy)cyclohexanecarboxylic acid], the Ki was 1.6 nM.

With `COc1cc(CC(=O)N2C[C@@H](F)C[C@H]2CO[C@H]2CC[C@H](C(=O)O)CC2)ccc1NC(=O)c1cc2ccccc2[nH]1` [Example 78, trans-4-(1-((4-((2-Indolylcarbonyl)amino)-3-methoxyphenyl)acetyl)-(4S)-fluoro-(2S)-pyrrolidinylmethoxy)cyclohexanecarboxylic acid], the Ki was 14 nM.

`O=C(Nc1ccc(CC(=O)N2C[C@@H](F)C[C@H]2CO[C@H]2CC[C@H](C(=O)O)CC2)cc1Cl)c1nccc2ccccc12` [Example 80, trans-4-(1-((3-Chloro-4-((1-isoquinolinylcarbonyl)amino)phenyl)acetyl)-(4S)-fluoro-(2S)-pyrrolidinylmethoxy)cyclohexanecarboxylic acid]: the Ki is 12 nM.

For the molecule `O=C(Nc1cc(F)c(CC(=O)N2C[C@@H](F)C[C@H]2CO[C@H]2CC[C@H](C(=O)O)CC2)cc1Cl)c1nccc2ccccc12` [Example 81, trans-4-(1-((5-Chloro-2-fluoro-4-((1-isoquinolinylcarbonyl)amino)phenyl)acetyl)-(4S)-fluoro-(2S)-pyrrolidinylmethoxy)cyclohexanecarboxylic acid], the Ki was 25 nM.

Turning to `O=C(Nc1ccc(CC(=O)N2C[C@@H](F)C[C@H]2CO[C@H]2CC[C@H](C(=O)O)CC2)cc1Cl)c1nccc2ccc(F)cc12` [Example 82, trans-4-(1-((3-Chloro-4-((7-fluoro-1-isoquinolinylcarbonyl)amino)phenyl)acetyl)-(4S)-fluoro-(2S)-pyrrolidinylmethoxy)cyclohexanecarboxylic acid], the Ki was 18 nM.

Consider `O=C(Nc1cc(F)c(CC(=O)N2C[C@@H](F)C[C@H]2CO[C@H]2CC[C@H](C(=O)O)CC2)cc1Cl)c1nsc2ccccc12` [Example 85, trans-4-(1-(5-Chloro-2-fluoro-(4-((3-benzo(d)isothiazolylcarbonyl)amino)phenyl)acetyl)-(4S)-fluoro-(2S)-pyrrolidinylmethoxy)cyclohexanecarboxylic acid], for which the Ki is 6.4 nM.

As for `O=C(Cc1ccc2nc(-c3cccc4ccccc34)oc2c1)N1C[C@@H](F)C[C@H]1CO[C@H]1CC[C@H](C(=O)O)CC1` [Example 95, trans-4-(1-(2-(1-Naphthyl)-6-benzoxazolylacetyl)-(4S)-fluoro-(2S)-pyrrolidinylmethoxy)cyclohexanecarboxylic acid], the Ki is 34 nM.

Turning to `Cn1cc(-c2nc3ccc(CC(=O)N4C[C@@H](F)C[C@H]4CO[C@H]4CC[C@H](C(=O)O)CC4)cc3o2)c2cc(Cl)ccc21` [Example 96, trans-4-(1-((2-(5-Chloro-1-methyl-3-indolyl)-6-benzoxazolyl)acetyl)-(4S)-fluoro-(2S)-pyrrolidinylmethoxy)cyclohexanecarboxylic acid], the Ki is 20 nM.

`Cn1cc(-c2nc3ccc(CC(=O)N4C[C@@H](F)C[C@H]4CO[C@H]4CC[C@H](C(=O)O)CC4)cc3o2)c2ccc(F)cc21` [Example 99, trans-4-(1-((2-(6-Fluoro-1-methyl-3-indolyl)-6-benzoxazolyl)acetyl)-(4S)-fluoro-(2S)-pyrrolidinylmethoxy)cyclohexanecarboxylic acid]: the Ki is 17 nM.

Take `O=C(Cc1ccc2nc(-c3nccc4ccccc34)oc2c1)N1C[C@@H](F)C[C@H]1CO[C@H]1CC[C@H](C(=O)O)CC1` [Example 102, trans-4-(1-(2-(1-Isoquinolinyl)-6-benzoxazolylacetyl)-(4S)-fluoro-(2S)-pyrrolidinylmethoxy)cyclohexanecarboxylic acid]: the Ki is 47 nM.

As to `O=C(Cc1ccc2nc(N3CCc4ccccc43)oc2c1)N1C[C@@H](F)C[C@H]1CO[C@H]1CC[C@H](C(=O)O)CC1` [Example 104], the Ki was 20 nM.

In the case of `O=C(Cc1ccc2nc(N3CCc4ccccc43)oc2c1F)N1C[C@@H](F)C[C@H]1CO[C@H]1CC[C@H](C(=O)O)CC1` [Example 105, trans-4-(1-((7-fluoro-2-(1-indolinyl)-6-benzoxazolyl)acetyl)-(4S)-fluoro-(2S)-pyrrolidinylmethoxy)cyclohexanecarboxylic acid], the Ki was 42 nM.

The values above are taken from patent publication US7157487B2, “Vla-4 inhibitors” (Daiichi Pharmaceutical Co., Ltd., priority 2000, dated 2007).
